Patent US8501750B2, “Heterocyclic compound and use thereof” (Takeda Pharmaceutical Company Limited, priority 2007, dated 2013)
Where a name gives a salt, the structure may show the parent alone. Read-outs that look alike come from different tables or passages of the source.

What was measured:
AT1 receptor = AT1 receptor (Homo sapiens (Human), UniProt P30556); assay: AT1 receptor binding inhibitory action
PPARγ = PPARγ (Homo sapiens (Human), UniProt P37231); assay: PPARγ activating action (luciferase reporter in PPARγ:RXRα:4ERPP/CHO-K1 cells); assay type: cell-based; conditions: CHO-K1, 24 h, read-out: PPARγ activating action (activation % (1 μM))
Chain of PPARγ (P37231 29-505): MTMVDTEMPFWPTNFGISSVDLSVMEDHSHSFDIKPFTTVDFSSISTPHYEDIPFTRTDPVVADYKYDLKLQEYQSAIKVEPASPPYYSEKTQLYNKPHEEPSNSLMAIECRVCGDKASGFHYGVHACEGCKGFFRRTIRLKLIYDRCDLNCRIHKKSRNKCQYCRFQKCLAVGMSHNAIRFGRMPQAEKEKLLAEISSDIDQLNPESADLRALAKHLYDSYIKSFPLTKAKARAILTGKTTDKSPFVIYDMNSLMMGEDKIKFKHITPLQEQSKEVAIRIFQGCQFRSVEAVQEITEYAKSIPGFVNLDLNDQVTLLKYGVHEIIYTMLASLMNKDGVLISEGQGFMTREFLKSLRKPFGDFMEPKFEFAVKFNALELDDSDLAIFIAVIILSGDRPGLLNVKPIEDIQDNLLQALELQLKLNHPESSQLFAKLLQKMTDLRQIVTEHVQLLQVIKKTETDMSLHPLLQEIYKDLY
Chain of PPARγ (P19793 whole entry partner): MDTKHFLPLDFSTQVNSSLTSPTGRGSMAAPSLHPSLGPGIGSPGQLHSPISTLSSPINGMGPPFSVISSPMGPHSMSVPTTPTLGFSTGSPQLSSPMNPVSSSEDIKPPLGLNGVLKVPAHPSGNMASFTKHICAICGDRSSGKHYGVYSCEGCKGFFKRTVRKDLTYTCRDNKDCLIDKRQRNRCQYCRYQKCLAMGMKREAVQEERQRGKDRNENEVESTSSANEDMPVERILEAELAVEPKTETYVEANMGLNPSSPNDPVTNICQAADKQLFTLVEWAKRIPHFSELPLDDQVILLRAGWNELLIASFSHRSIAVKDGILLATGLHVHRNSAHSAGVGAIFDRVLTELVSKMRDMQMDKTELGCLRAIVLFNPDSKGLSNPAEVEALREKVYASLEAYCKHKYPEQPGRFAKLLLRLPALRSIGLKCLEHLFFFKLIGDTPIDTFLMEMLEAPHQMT
Experimental: Then the medium was removed from the 96-well half area white plate, 45 μl of Ham's F12 medium containing 0.1% fatty acid-free bovine serum albumin (BSA) and 5 μl of test compound were added, and the cells were cultured in a CO2 gas incubator at 37° C. for 1 day. The medium was removed and 20 μl of PicaGene 7.5 [manufactured by Dainippon Ink and Chemicals Corporation, Japan] diluted 2-fold with HBSS (HANKS' BALANCED SALT SOLUTION) [manufactured by BIO WHITTAKER, USA] was added. After stirring, the luciferase activity was determined using 1420 ARVO Multilabel Counter [manufactured by PerkinElmer, USA]. […] A CHO-K1 cell cultured in a 150 cm^2 cell culture flask [manufactured by Corning Costar Corporation, USA] containing Ham's F12 medium [manufactured by INVITROGEN, USA] supplemented with 10% fetal bovine serum [manufactured by INVITROGEN, USA] was scraped by treating with 0.5 g/L trypsin-0.2 g/L EDTA (ethylenediaminetetraacetic acid) [manufactured by Life Technologies, Inc., USA], and then the cell was washed with PBS (Phosphate-buffered saline) [manufactured by INVITROGEN, USA], centrifuged (1000 rpm, 5 minutes) and suspended in PBS. Subsequently, DNA was introduced into the cell under the conditions shown below using GENE PULSER [manufactured by Bio-Rad Laboratories, USA]. […] Subsequently, the cell was transferred into a F12 medium containing 10% fetal bovine serum and cultured for 24 hours, and then the cell was scraped again and centrifuged, and then suspended in Ham's F12 medium containing 10% fetal bovine serum supplemented with 500 μg/ml of Geneticin [manufactured by INVITROGEN, USA] and 250 μg/ml of Zeocin [manufactured by INVITROGEN, USA]. The obtained suspension was diluted to the density of 10^4 cells/ml and inoculated in a 96-well plate [manufactured by Corning Costar Corporation, USA], which was cultured in a CO2 gas incubator at 37° C., whereby obtaining a Geneticin- and Zeocin-resistant transformant.

[1] = test compound 1 μM, luciferase activity relative to control compound X (1 μM) = 100%, non-administration group = 0%

Chain of AT1 receptor (P30556 whole entry): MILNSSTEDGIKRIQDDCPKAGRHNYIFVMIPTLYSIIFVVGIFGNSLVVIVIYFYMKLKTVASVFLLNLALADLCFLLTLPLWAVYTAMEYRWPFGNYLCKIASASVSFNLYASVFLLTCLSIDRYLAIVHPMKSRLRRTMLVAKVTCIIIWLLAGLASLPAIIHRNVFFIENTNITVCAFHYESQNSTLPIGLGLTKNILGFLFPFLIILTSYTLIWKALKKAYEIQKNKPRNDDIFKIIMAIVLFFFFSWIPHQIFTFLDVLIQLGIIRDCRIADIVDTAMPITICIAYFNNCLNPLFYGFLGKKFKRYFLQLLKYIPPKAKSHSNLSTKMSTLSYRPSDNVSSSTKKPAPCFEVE

Compound | IC50 (AT1 receptor) [nM] | activation at 1 µM (PPARγ; [1]) [%] | activation at 1 µM (PPARγ) [%]
CCc1cc2c(=O)n(CC(=O)c3ccc(OC)cc3)c(=O)n(Cc3ccc(-c4ccccc4-c4noc(O)n4)cc3Br)c2s1 [Ex. 194, 1-{[3-bromo-2′-(5-oxo-4,5-dihydro-1,2,4-oxadiazol-3-yl)biphenyl-4-yl]methyl}-6-ethyl-3-[2-(4-methoxyphenyl)-2-oxoethyl]thieno[2,3-d]pyrimidine-2,4(1H,3H)-dione potassium salt] | 1.7 |  | 34
CCc1cc2c(=O)n(CC(=O)c3ccc(OC)cc3)c(=O)n(Cc3ccc(-c4ccc(F)cc4-c4noc(=O)[nH]4)cc3)c2s1 [Ex. 198, 6-ethyl-1-{[4′-fluoro-2′-(5-oxo-4,5-dihydro-1,2,4-oxadiazol-3-yl)biphenyl-4-yl]methyl}-3-[2-(4-methoxyphenyl)-2-oxoethyl]thieno[2,3-d]pyrimidine-2,4(1H,3H)-dione] | 1.5 | 36 | 
CCc1cc2c(=O)n(CC(=O)c3ccc(OC)cc3)c(=O)n(Cc3ccc(-c4cc(F)ccc4-c4noc(=O)[nH]4)cc3)c2s1 [Ex. 203, 6-ethyl-1-{[5′-fluoro-2′-(5-oxo-4,5-dihydro-1,2,4-oxadiazol-3-yl)biphenyl-4-yl]methyl}-3-[2-(4-methoxyphenyl)-2-oxoethyl]thieno[2,3-d]pyrimidine-2,4(1H,3H)-dione] | 1.8 | 28 | 
CCc1cc2c(=O)n(CC(=O)c3ccccc3)c(=O)n(Cc3ccc(-c4ccccc4-c4noc(=O)[nH]4)cc3)c2s1 [Ex. 209, 6-ethyl-1-{[2′-(5-oxo-4,5-dihydro-1,2,4-oxadiazol-3-yl)biphenyl-4-yl]methyl}-3-(2-oxo-2-phenylethyl)thieno[2,3-d]pyrimidine-2,4(1H,3H)-dione] | 1.4 | 66 | 
CCc1cc2c(=O)n(CC(=NOC(C)C)c3ccc(OC)cc3)c(=O)n(Cc3ccc(-c4ccccc4-c4noc(=O)[nH]4)cc3)c2s1 [Ex. 213, 6-ethyl-3-[2-(isopropoxyimino)-2-(4-methoxyphenyl)ethyl]-1-{[2′-(5-oxo-4,5-dihydro-1,2,4-oxadiazol-3-yl)biphenyl-4-yl]methyl}thieno[2,3-d]pyrimidine-2,4(1H,3H)-dione] | 2 | 49 | 
C=CCON=C(Cn1c(=O)c2cc(CC)sc2n(Cc2ccc(-c3ccccc3-c3noc(=O)[nH]3)cc2)c1=O)c1ccc(OC)cc1 [Ex. 214, 3-[2-[(allyloxy)imino]-2-(4-methoxyphenyl)ethyl]-6-ethyl-1-{[2′-(5-oxo-4,5-dihydro-1,2,4-oxadiazol-3-yl)biphenyl-4-yl]methyl}thieno[2,3-d]pyrimidine-2,4(1H,3H)-dione] | 1.8 | 41 | 
CCc1cc2c(=O)n(CC(=O)c3sccc3Br)c(=O)n(Cc3ccc(-c4ccccc4-c4noc(=O)[nH]4)cc3)c2s1 [Ex. 222, 3-[2-(3-bromo-2-thienyl)-2-oxoethyl]-6-ethyl-1-{[2′-(5-oxo-4,5-dihydro-1,2,4-oxadiazol-3-yl)biphenyl-4-yl]methyl}thieno[2,3-d]pyrimidine-2,4(1H,3H)-dione] | 1.9 | 32 | 

Continued by falling IC50 (AT1 receptor), values first:

IC50 (AT1 receptor) [nM] | activation at 1 µM (PPARγ; [1]) [%] | Compound | activation at 1 µM (PPARγ) [%]
1.6 | 31 | CCO/N=C(/Cn1c(=O)c2cc(CC)sc2n(Cc2ccc(-c3ccccc3-c3noc(=O)[nH]3)cc2)c1=O)c1ccc(OC)cc1 [Ex. 210, 3-[2-(ethoxyimino)-2-(4-methoxyphenyl)ethyl]-6-ethyl-1-{[2′-(5-oxo-4,5-dihydro-1,2,4-oxadiazol-3-yl)biphenyl-4-yl]methyl}thieno[2,3-d]pyrimidine-2,4(1H,3H)-dione] | 
1.6 | 39 | CCc1cc2c(=O)n(CC(C)(C)c3ccccc3)c(=O)n(Cc3ccc(-c4ccccc4-c4noc(=O)[nH]4)cc3)c2s1 [Ex. 225, 6-ethyl-3-(2-methyl-2-phenylpropyl)-1-{[2′-(5-oxo-4,5-dihydro-1,2,4-oxadiazol-3-yl)biphenyl-4-yl]methyl}thieno[2,3-d]pyrimidine-2,4(1H,3H)-dione] | 
1.5 | 69 | CCc1cc2c(=O)n(CC(=O)C3CCCCC3)c(=O)n(Cc3ccc(-c4ccccc4-c4noc(=O)[nH]4)cc3)c2s1 [Ex. 205, 3-(2-cyclohexyl-2-oxoethyl)-6-ethyl-1-{[2′-(5-oxo-4,5-dihydro-1,2,4-oxadiazol-3-yl)biphenyl-4-yl]methyl}thieno[2,3-d]pyrimidine-2,4(1H,3H)-dione] | 
1.4 | 67 | CCc1cc2c(=O)n(CC(=O)c3ccc(OC)cc3)c(=O)n(Cc3c(F)cc(-c4ccccc4-c4noc(=O)[nH]4)cc3F)c2s1 [Ex. 197, 1-{[3,5-difluoro-2′-(5-oxo-4,5-dihydro-1,2,4-oxadiazol-3-yl)biphenyl-4-yl]methyl}-6-ethyl-3-[2-(4-methoxyphenyl)-2-oxoethyl]thieno[2,3-d]pyrimidine-2,4(1H,3H)-dione] | 
1.4 | 47 | CCc1cc2c(=O)n(CC(=O)c3cccs3)c(=O)n(Cc3ccc(-c4ccccc4-c4noc(=O)[nH]4)cc3)c2s1 [Ex. 221, 6-ethyl-1-{[2′-(5-oxo-4,5-dihydro-1,2,4-oxadiazol-3-yl)biphenyl-4-yl]methyl}-3-[2-oxo-2-(2-thienyl)ethyl]thieno[2,3-d]pyrimidine-2,4(1H,3H)-dione] | 
1.3 | 27 | CCc1cc2c(=O)n(CC(=NOC)c3ccccc3)c(=O)n(Cc3ccc(-c4ccccc4-c4noc(=O)[nH]4)cc3)c2s1 [Ex. 215, 6-ethyl-3-[2-(methoxyimino)-2-phenylethyl]-1-{[2′-(5-oxo-4,5-dihydro-1,2,4-oxadiazol-3-yl)biphenyl-4-yl]methyl}thieno[2,3-d]pyrimidine-2,4(1H,3H)-dione] | 
0.34 | 65 | CCc1cc2c(=O)n(CCc3ccc(F)cc3)c(=O)n(Cc3ccc(-c4ccccc4-c4noc(=O)[nH]4)cc3)c2s1 [Example 56, 6-ethyl-3-[2-(4-fluorophenyl)ethyl]-1-{[2′-(5-oxo-4,5-dihydro-1,2,4-oxadiazol-3-yl)biphenyl-4-yl]methyl}thieno[2,3-d]pyrimidine-2,4(1H,3H)-dione] | 
